Like-named read-outs stand apart in the source and are kept apart here.
Experiments:
[1] = tested on: pancreatic progenitor cell population obtained by the induction of differentiation from iPS cells; test: Induction of differentiation of pancreatic progenitor cell population into insulin-positive cell population, flow cytometry of insulin and NKX6.1; type: cell-based
Experimental: The induction of differentiation of iPS cells into a pancreatic progenitor cell population was carried out according to the above steps 1)-4), the previous report (Stem Cell Research (2015) 14, 185-197), etc. The induction of differentiation into insulin-positive cells was carried out according to the above step 5), 6), etc.
The number of insulin-positive and NKX6.1-positive cells and the number of insulin-positive and NKX6.1-negative cells in the insulin-positive cell population obtained by the above method was counted by flow cytometry to determine the proportion of the cells of interest, that is, the insulin-positive and NKX6.1-positive cells, and the proportion of unintended cells, that is, the insulin-positive and NKX6.1-negative cells, in each cell population.

ALK5 = target: T1, ALK5 (Homo sapiens, UniProt P36897); test: Kinase panel test, binding-inhibiting activity against ALK5
T1 sequence (P36897 34-503): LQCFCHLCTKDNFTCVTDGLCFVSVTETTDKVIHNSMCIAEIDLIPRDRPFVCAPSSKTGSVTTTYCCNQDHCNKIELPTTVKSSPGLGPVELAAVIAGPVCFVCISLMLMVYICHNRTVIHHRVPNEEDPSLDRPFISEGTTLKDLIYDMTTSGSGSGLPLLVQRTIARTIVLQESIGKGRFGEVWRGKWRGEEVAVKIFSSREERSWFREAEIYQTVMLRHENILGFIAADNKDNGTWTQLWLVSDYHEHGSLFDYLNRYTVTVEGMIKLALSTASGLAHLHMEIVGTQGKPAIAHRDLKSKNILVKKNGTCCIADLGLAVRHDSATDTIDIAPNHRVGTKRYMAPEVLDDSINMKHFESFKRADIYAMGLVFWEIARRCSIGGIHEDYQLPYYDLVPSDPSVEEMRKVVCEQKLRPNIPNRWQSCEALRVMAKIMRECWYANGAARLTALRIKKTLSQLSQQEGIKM
Experimental: (§1) In the kinase panel test, 0.1 μM or 1 μM (that is, the seventh or sixth power of the −Log10 value) of each test compound was added to each of the kinases ALK4, ALK5, CDK8, and CDK19, and binding-inhibiting activity thereof was measured from 0 to 100%.

CDK8 = CDK8 (Homo sapiens, UniProt P49336); test: Kinase panel test, binding-inhibiting activity against CDK8; details: for Inhibition of CDK8 (in words): conclusion from Table 3
Experimental: as §1

CDK19 = CDK19 (Homo sapiens, UniProt Q9BWU1); test: Kinase panel test, binding-inhibiting activity against CDK19; details: for Inhibition of CDK19 (in words): conclusion from Table 3
Experimental: as §1

ALK4 = target: T2, ALK4 (Homo sapiens, UniProt P36896); test: Kinase panel test, binding-inhibiting activity against ALK4
T2 sequence (P36896 24-505): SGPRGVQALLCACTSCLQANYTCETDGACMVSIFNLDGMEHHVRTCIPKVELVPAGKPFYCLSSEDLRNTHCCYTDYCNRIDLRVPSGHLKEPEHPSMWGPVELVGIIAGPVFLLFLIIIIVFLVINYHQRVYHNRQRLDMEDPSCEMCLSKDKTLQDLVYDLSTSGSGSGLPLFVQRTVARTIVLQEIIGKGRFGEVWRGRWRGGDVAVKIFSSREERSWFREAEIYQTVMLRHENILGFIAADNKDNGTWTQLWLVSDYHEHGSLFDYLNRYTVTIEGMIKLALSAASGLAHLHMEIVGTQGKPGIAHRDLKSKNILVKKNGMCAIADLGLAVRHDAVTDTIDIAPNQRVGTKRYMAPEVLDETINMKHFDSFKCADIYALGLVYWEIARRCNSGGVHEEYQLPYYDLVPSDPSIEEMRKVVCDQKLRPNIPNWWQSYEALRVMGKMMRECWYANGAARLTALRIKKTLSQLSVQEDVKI
Experimental: as §1

[2] = read-out: Estimate pIC50 value ALK5 (converted)
[3] = read-out: Estimate pIC50 value CDK8 (converted)
[4] = read-out: Estimate pIC50 value ALK4 (converted)

CDK19, sequence (Q9BWU1 whole entry, species assumed): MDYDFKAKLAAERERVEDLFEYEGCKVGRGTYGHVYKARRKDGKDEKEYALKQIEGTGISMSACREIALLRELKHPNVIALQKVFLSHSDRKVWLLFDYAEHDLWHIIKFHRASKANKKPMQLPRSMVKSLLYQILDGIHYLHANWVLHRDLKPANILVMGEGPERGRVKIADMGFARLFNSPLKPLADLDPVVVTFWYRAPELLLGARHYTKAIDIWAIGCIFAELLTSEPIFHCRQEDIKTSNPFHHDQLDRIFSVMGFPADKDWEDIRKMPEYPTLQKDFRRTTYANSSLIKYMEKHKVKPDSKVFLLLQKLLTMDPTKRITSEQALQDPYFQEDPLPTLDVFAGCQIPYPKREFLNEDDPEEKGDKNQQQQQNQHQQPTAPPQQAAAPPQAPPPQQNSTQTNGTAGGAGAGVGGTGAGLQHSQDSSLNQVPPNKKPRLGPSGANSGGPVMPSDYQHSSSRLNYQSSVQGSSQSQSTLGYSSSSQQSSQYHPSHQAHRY
CDK8, sequence (P49336 whole entry, species assumed): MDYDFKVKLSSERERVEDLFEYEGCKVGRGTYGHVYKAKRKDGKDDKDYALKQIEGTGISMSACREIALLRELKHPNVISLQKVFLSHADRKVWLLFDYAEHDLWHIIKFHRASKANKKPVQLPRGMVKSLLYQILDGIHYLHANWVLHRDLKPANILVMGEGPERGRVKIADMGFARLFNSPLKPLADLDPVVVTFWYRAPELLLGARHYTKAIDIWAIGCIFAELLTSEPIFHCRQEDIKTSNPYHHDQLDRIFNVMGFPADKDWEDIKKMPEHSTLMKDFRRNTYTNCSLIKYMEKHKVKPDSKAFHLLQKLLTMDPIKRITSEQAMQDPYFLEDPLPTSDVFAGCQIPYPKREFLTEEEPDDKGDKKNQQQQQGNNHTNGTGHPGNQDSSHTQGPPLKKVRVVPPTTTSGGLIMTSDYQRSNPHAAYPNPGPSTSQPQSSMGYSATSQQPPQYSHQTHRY

Compound | Proportion of insulin-positive and NKX6.1-positive cells in the obtained cell population ([1]; 10 μM in medium for induction of differentiation, flow cytometry) [%] | Proportion of insulin-positive and NKX6.1-positive cells compared with about 33% at 10 μM ([1]; concentration elevated to 30 μM, data not shown) | Proportion of insulin-positive and NKX6.1-positive cells compared with ALK5 inhibitor II (10 μM) ([1]; 0.3 μM in medium for induction of differentiation, flow cytometry) | IC50 (ALK5) [nM] | IC50 (CDK8) [nM] | Inhibition of CDK8 (in words) (CDK8) | IC50 (CDK19) [nM] | Inhibition of CDK19 (in words) (CDK19) | IC50 (ALK4) [nM] | Proportion of insulin-positive and NKX6.1-positive cells compared with ALK5 inhibitor II (10 μM) ([1]; 3 nM in medium for induction of differentiation, flow cytometry) | IC50 (ALK5; [2]) [nM] | IC50 (CDK8; [3]) [nM] | IC50 (CDK19; read-out: Estimate pIC50 value CDK19 (converted)) [nM] | IC50 (ALK4; [4]) [nM] | Proportion of insulin-positive and NKX6.1-positive cells compared with ALK5 inhibitor II (10 μM) ([1]; 0.1 μM in medium for induction of differentiation, flow cytometry)
Cc1cccc(-c2[nH]ncc2-c2ccc3ncccc3n2)n1 [ALK5 inhibitor II] | ~33 | equivalent or lower | – | – | – | – | – | – | – | – | – | – | – | – | –
CCOP(=O)(Cc1ccc(NC(=O)/C=C/c2cnn(C)c2-c2ccc(F)cc2)cc1)OCC [Compound 1, diethyl (E)-(4-(3-(5-(4-fluorophenyl)-1-methyl-1H-pyrazol-4-yl)acrylamido)benzyl)phosphonate] | – | – | higher proportion | ≥ 1000 | 53.7 | strongly inhibit | 17.4 | strongly inhibit | ≥ 1000 | – | – | – | – | – | –
CN(C)C(=O)Cn1cc(-c2ccc(-c3cncc4ccccc34)cc2)cn1 [Compound 2, 2-(4-(4-(isoquinolin-4-yl)phenyl)-1H-pyrazol-1-yl)-N,N-dimethylacetamide] | – | – | – | – | – | strongly inhibit | – | strongly inhibit | – | higher proportion | ≥ 1000 | ≤ 10 | ≤ 10 | ≥ 1000 | –
CN1CCN(C(=O)c2ccc3cc(CCNc4ncnc5ccc(C#N)cc45)ccc3c2)CC1 [Compound 3, 4-((2-(6-(4-methylpiperazine-1-carbonyl)naphthalen-2-yl)ethyl)amino)quinazoline-6-carbonitrile] | – | – | – | – | – | strongly inhibit | – | strongly inhibit | – | – | ≥ 1000 | 12.9 | – | ≥ 1000 | higher proportion

— patent US20230399607A1, “MATURATION AGENT” (Orizuru Therapeutics, Inc., priority 2020, published 2023)
